Test results published in patent US20220390458A1, “FLUORESCENT PROBE AND APPLICATIONS THEREOF” (CENTRE NATIONAL DE LA RECHERCHE SCIENTIFIQUE (CNRS), priority 2019, published 2022).

Key:
[1] = Probe fluorescence in organic solvents of increasing polarity; format: physicochemical; details: 25° C., 2.6 μM probes
Experimental: Fluorescence measurements were performed with a Hitachi F4500 fluorometer. Excitation and emission slits were fixed at 5 nm and spectra were recorded at 25° C. using a 1 cm path length thermostated quartz micro-cuvette. 0.26 mM solutions of the probes were prepared in a dichloromethane: methanol mixture (3:1 volume ratio). Measurements were performed with […] probes diluted in the different solvents (see Table 1). The initial solvent of the stock solution thus represents 1% of the final volume.

[2] = carboxylic group; cited from earlier work
[3] = DIOLL probe fluorescence-based liposome quantification; details: POPC liposomes; 21° C.; excitation 390 nm
Experimental: A POPC solution of known concentration (100 μg.ml^−1) was used as standard. Increasing volumes of the standard solution were diluted with buffer in a 96 well plate (Nunc). The final volume per well was 200 μl and lipid concentrations between 0 and 80 μg.ml^−1 were used. Samples were prepared in parallel to a final volume of 200 μl per well.
A constant volume of DIOLL solution in ethanol (5 μl) was added in each well to obtain a final DIOLL concentration of 2 μM. The volume of ethanol added represented 2.5% of the final volume and had no effect on liposome integrity. The plate was incubated at room temperature for 10 min. Fluorescence emission spectra were recorded between 420 nm and 600 nm for an excitation wavelength of 390 nm with a TECAN InfiniteM200 plate reader. Spectra were recorded at 21° C.
The surface under the spectrum was calculated for each condition using an Excel complementary function, IntegralP (www.fordom.free.fr) which allows one to calculate the integral of a function when discrete data sets are available. Maximum fluorescence intensities or surfaces under the curve were plotted as a function of the lipid concentration to obtain the standard curve. […]
To conclude upon the repeatability of the method, the coefficient of variation (CV) was calculated as the percentage of the standard deviation on the mean of 5 independent measurements. […]

[4] = Probe fluorescence in DMPC liposomes as a function of temperature (5 to 65° C.); format: physicochemical; details: for maximum emission wavelength, liquid crystalline phase: above phase transition temperature; for maximum emission wavelength, liquid crystalline phase / maximum emission wavelength, gel phase: excitation 385 nm; for maximum emission wavelength, gel phase: below phase transition temperature
Experimental: Liposomes were prepared in PBS buffer using a classical freeze/though protocol. In brief, lipids dissolved in chloroform were dried under vacuum. The lipid film formed was rehydrated with the PBS solution and agitated until the complete suspension of the lipid film. The vesicle solution was then submitted to 6 freeze/thaw (5 min in liquid nitrogen/10 min in 37° C. water bath) cycles and then extruded 19 times sequentially trough 400 nm and 200 nm polycarbonate membranes (Avanti Polar Lipids Liposome Extruder). The 200 nm liposome suspension was stored at 4° C.
Fluorescence data was obtained using a Hitachi F4500 fluorometer. Emission spectra were recorded between 420 and 600 nm with an excitation wavelength fixed at 385 nm and 5 nm excitation and emission slits. Ethanol solutions of fluorescent probes were prepared and added to liposomes at a 1:400 (probe: phospholipid) molar ratio. Liposomes were used at a 40 μg.mL^−1 final concentration. Measurements were done at 21° C. for all liposome compositions indicated in Table 2, except for DMPC where a range of temperature from 5 to 65° C. was also applied.
The spectral shift described above was quantified by calculation of the Generalized Polarization (GP) parameter. This parameter provides a quantitative index of membrane fluidity and is calculated as the difference between fluorescence emission intensity at a 440 nm (lipids with gel properties) and the intensity at 490 nm (wavelength evidenced in lipids with liquid crystal properties), divided by the sum of these two intensities. The GP parameter was thus calculated from fluorescence emission intensities according to the following formula: […]
where Igel and Ilc are, respectively, intensities of fluorescence at wavelengths characteristic of probe emission, respectively in gel and liquid crystal lipid phases.

[5] = DIOLL fluorescence in DPPC liposomes (plate reader, quantification method); format: physicochemical; details: 21° C., excitation 390 nm
Experimental: (§1) Liposomes were prepared using a classical freeze/thaw protocol. Briefly, the appropriate lipid mixture solubilized in chloroform was dried under vacuum, then solubilized with 1 ml buffer under strong agitation. Assays were done either in HEPES 20 mM pH 7.4 buffer 100 mM NaCl or in PBS. The liposome emulsion obtained was submitted to 6 freeze/thaw cycles (5 min in liquid nitrogen/10 min in a water bath at 37° C., 1 minute strong agitation) to decrease the number of bilayers and obtain unilamellar vesicles. To obtain homogenous vesicles, the liposome solution was extruded successively through a 400 nm and 100 nm polycarbonate membrane using an extruder (Avanti Polar Lipids). Liposomes were routinely prepared at lipid concentrations between 1 and 10 mg.ml^−1 and subsequently diluted at the desired concentration. A constant volume of DIOLL solution in ethanol (5 μl) was added in each well to obtain a final DIOLL concentration of 2 μM. The volume of ethanol added represented 2.5% of the final volume and had no effect on liposome integrity. The plate was incubated at room temperature for 10 min. Fluorescence emission spectra were recorded between 420 nm and 600 nm for an excitation wavelength of 390 nm with a TECAN InfiniteM200 plate reader. Spectra were recorded at 21° C.

[6] = DIOLL fluorescence in DMPC liposomes (plate reader, quantification method); format: physicochemical; details: 21° C., excitation 390 nm
Experimental: as §1

[7] = Determination of nanoemulsion (NE) fluidity with DIOLL probe; format: physicochemical
[8] = system: influenza virus membranes; assay: Labeling of viral membranes and GP calculation; details: 21° C.; excitation 390 nm
[9] = Probe fluorescence intensity in POPC liposomes; format: physicochemical; details: 25° C., final concentration 0.2 μM
[10] = literature; cited from earlier work
[11] = cited from earlier work

| SMILES | Maximum fluorescence intensity ([1]; Chloroform) [A. U.] | λ emission maximum ([1]; Chloroform) [nm] | Maximum fluorescence intensity ([1]; DMSO) [A. U.] | λ emission maximum ([1]; DMSO) [nm] | Maximum fluorescence intensity ([1]; Ethanol) [A. U.] | λ emission maximum ([1]; Ethanol) [nm] | Maximum fluorescence intensity ([1]; Toluene) [A. U.] | λ emission maximum ([1]; Toluene) [nm] | gel over liquid crystalline ratio of fluorescence intensity [4] | inflexion point of first derivative of GP vs temperature [4] [°C] | maximum emission wavelength, liquid crystalline phase [4] | maximum emission wavelength, gel phase [4] [nm] | emission maximum, gel phase membranes [10] [nm] | emission maximum, liquid crystalline phase membranes [10] [nm] | also measured |
| --- | --- | --- | --- | --- | --- | --- | --- | --- | --- | --- | --- | --- | --- | --- | --- |
| CCCCCCCCCCCC(=O)c1ccc2cc(N(C)CC(=O)O)ccc2c1 [C-Laurdan, 6-Dodecanoyl-2-[N-methyl-N-(carboxymethyl)amino] naphthalene] | 3115 | 432 | 2428 | 450 | 1491 | 485 | 359 | 416 |  |  |  |  |  |  | pKa [2]: 6.6 |
| CCCCCCCCCCCC(=O)c1ccc2cc(N(C)CC(O)CO)ccc2c1 (stereo not shown) [DIOLL, 1-(6-((2,3-dihydroxypropyl)(methyl)amino)naphthalen-2-yl)dodecan-1-one] | 5041 | 424 | 9384 | 441 | 7647 | 486 | 5041 | 424 | 0.8 | 23 | 490 nm | 440 |  |  | fluorescence intensity emission maximum [3]: 490 nm; maximum fluorescence emission [5]: 440 nm; λ emission maximum ([1]; Chloroform, listed as DIOLL probe): 441 nm; λ emission maximum ([1]; DMSO, listed as DIOLL probe): 460 nm; λ emission maximum ([1]; Toluene, listed as DIOLL probe): 425 nm; maximum fluorescence emission [6]: 440 nm; fluorescence emission peak dissolved in MCT ([7]; 2.6 μM in MCT, single peak): 440 nm; fluorescence emission dissolved in water ([7]; 2.6 μM in water): no fluorescence emission was detected; maximum fluorescence intensity wavelength [8]: 440 nm; fluorescence intensity, fold higher than that of Laurdan and C-Laurdan [9]: 7 fold |
| CCCCN(CCCC)c1ccc2cc(/C=C/c3cc[n+](CC(O)C[N+](C)(C)CCO)cc3)ccc2c1.[Br-].[Br-] (stereo not shown) [Di-4-ANEPPDHQ] |  |  |  |  |  |  |  |  |  |  |  |  | 560 | 610 |  |
| CCCCCCCCCCCC(=O)c1ccc2cc(N(C)C)ccc2c1 [Laurdan, 6-dodecanoyl-2-dimethylaminonaphthalene] | 4441 | 440 | 5533 | 460 | 4221 | 485 | 3814 | 423 | 0.6 | 23 | around 490 nm | 440 | 440 | 490 | solubility in aqueous buffers [11]: low solubility in aqueous buffers; fluorescence emission peak when incubated with NE solution ([7]; single peak): 440 nm |
